Measured values as given in patent US20040072315A1, “Integrin-binding chimeras” (priority 2003, published 2004).
Where a SMILES comes first, the peptide text is derived from it. Bridges are numbered along the chain shown (N, C = ends). [ ]: non-standard residue; d: D form. hArg = N=C(N)NCCCC[C@H](N)C(=O)O; Mpa = O=C(O)CCS

B1: NAP5: anticoagulant protein of hookworm Ancylostoma caninum, SEQ ID NO:28 (protein)
chain: KAYPECGENEWLDDCGTQKPCEAKCNEEPPEEEDPICRSRGCLLLPACVCKDGFYRDTVIGDCVREEECDQHEIIH
modifications: Description of Artificial Sequence: NAP portion of ND9
B2: ND9-M3: cleaved ND9 with a fragment of NAP5 linked to dendroaspin, SEQ ID NO:30 (protein)
chain: RSRGCLLLPACVCKDGFYRDTVIGDCVREEECDQHEIIHVGGGGPGPGGGPGGRICYNHLGTKPPTTETCQEDSCYKNIWTFDNIIRRGCGCFTARGDMPGPYCCESDNCNL
modifications: Descriotion of Artificial Sequence: protein fragment ND9-F3

Experiments:
factor Xa [1] = assay: single-stage chromogenic assay of factor Xa inhibition (S-2765); format: biochemical; settings: chromogenic substrate S-2765, 30 min preincubation; for IC50: read-out: Anti-Xa
Protocol: A single-stage chromogenic assay of factor Xa inhibition was used to determine this recombinant molecule. Clotting factor Xa was diluted to […] in 10 mM Hepes (pH 7.5) containing 0.1% bovine serum albumin and 150 mM NaCl (HBSA). Fifty microliters of sample (diluted at vary concentrations into HSBA) were incubated for 30 min at room temperature with 100 μl of factor Xa in a 96-well microtiter plate. Fifty microliters of 1 mM S-2765, a chromogenic substrate for factor Xa, was then added, and the initial rate (mOD per min) of substrate hydrolysis over 5 min was measured at 405/650 nm by using a automated plate reader.

factor Xa [2] = biological target: factor Xa (Homo sapiens, UniProt P00742); settings: slow, tight-binding inhibitor; cited from earlier work
[3] = system: factor VIIa, kallikrein, trypsin, chymotrypsin, thrombin, urokinase, plasmin, tissue plasminogen activator, elastase, Staphylococcus aureus V8 protease; settings: 300-fold molar excess; cited from earlier work
[4] = system: platelets in PRP from citrated human blood; assay: ADP-induced platelet aggregation in PRP (light transmission); format: cell-based; settings: 10 μM ADP; for IC50: molar value (MW of Repro assumed 42 Kd, Integrilin 720d), read-out: Inhibition of ADP-induced platelet aggregation
Protocol: Platelet aggregation was measured by the increase in light transmission as described previously. Briefly, PRP was prepared from citrated human blood, obtained from healthy individuals, by centrifugation at 200×g for 15 mins. Platelet aggregation was induced with 10 μM ADP and measured using a Payton Dual-Aggregometer linked to a chart recorder.
The efficacy of wild-type and five variants of dendroaspin was assessed using ADP-induced platelet aggregation in PRP. The percentage of inhibition of platelet aggregation by these mutant dendroaspins was compared with wild-type dendroaspin and the inhibition of platelet aggregation expressed as IC50 values.

platelets = assay: collagen-induced platelet aggregation; format: cell-based, human; settings: for IC50: molar value (MW of Repro assumed 42 Kd, Integrilin 720d), read-out: Inhibition of collagen-induced platelet aggregation
Protocol: Platelet aggregation was measured by the increase in light transmission as described previously. Briefly, PRP was prepared from citrated human blood, obtained from healthy individuals, by centrifugation at 200×g for 15 mins. […]

[5] = biological target: integrin αIIbβ3 (glycoprotein GP IIb/IIIa) on human platelets (human) (UniProt P08514); assay: cell-based or functional assay
[6] = system: 11 other serine proteases; settings: only protease inhibited among 11 other serine proteases; cited from earlier work

Sequence of factor Xa (Homo sapiens, UniProt P00742) (P00742 235-488 limits assumed): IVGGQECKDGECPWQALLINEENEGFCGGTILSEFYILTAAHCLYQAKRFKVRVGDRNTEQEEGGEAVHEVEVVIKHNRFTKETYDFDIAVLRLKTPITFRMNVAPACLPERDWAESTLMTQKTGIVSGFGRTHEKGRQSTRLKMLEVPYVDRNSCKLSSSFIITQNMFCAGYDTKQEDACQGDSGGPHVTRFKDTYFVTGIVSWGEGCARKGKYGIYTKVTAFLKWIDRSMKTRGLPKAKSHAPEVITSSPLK
Sequence of factor Xa (Homo sapiens, UniProt P00742) (P00742 41-179 partner limits assumed): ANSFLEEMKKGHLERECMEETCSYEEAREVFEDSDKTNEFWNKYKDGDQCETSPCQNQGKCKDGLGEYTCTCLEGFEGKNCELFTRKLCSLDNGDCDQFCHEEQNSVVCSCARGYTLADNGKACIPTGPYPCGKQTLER

Row | Molecule | Anti-Xa (factor Xa [1]) [µg/mL] | IC50 (factor Xa [1]) [nM] | Inhibition of ADP-induced platelet aggregation [4] [µg/mL] | IC50 [4] [nM] | Inhibition of collagen-induced platelet aggregation (platelets) [µg/mL] | IC50 (platelets) [nM] | further results
1 | TAP: tick anticoagulant peptide from Ornithodoros moubata, factor Xa inhibitor (YNRLCIKPRDWIDECDSNEGGERAYFRNGKGGCDSFWICPEDHTGADYYSSYRDCFNACI) | 0.02 to 0.07 | 2.8 to 10 |  |  |  |  | Ki (factor Xa [2]): 0.588 nM; effect on other proteases [3]: no effect
2 | N=C(N)NCCCC[C@@H]1NC(=O)CCSSC[C@@H](C(N)=O)NC(=O)[C@@H]2CCCN2C(=O)[C@H](Cc2c[nH]c3ccccc23)NC(=O)[C@H](CC(=O)O)NC(=O)CNC1=O [Integrilin] ([Mpa][hArg]GDWPC-NH2; disulfide 1-7) |  |  | 0.2 | 277 | 0.23 | 319 | 
3 | Repro: also known as 7E3, a known inhibitor of integrin-mediated binding; MW assumed 42 Kd |  |  | 3.2 | 76 | 3.80 | 90 | 
4 | Dendroaspin (ligand) |  |  |  |  |  |  | Inhibition of ADP-induced platelet aggregation [5]: 1.2 µg/mL
5 | B1 |  |  |  |  |  |  | inhibition of Factor Xa [6]: 50%
6 | B2 | 2.3 | 141 | 4.2 | 260 | 3.90 | 240 | 
